Assay results reported in PMC6522510 (Nature Communications, 2019).
Like-named read-outs stand apart in the source and are kept apart here.

Tests used:
Parameters in all cases: species or system AML cell lines (8); Primary HTS, single concentration about 10 uM, Cell Titer Glo viability; log10 luminescence, per cent inhibition relative to cycloheximide control
Conditions in all cases: 72 h, relative to cycloheximide control, log10 luminescence, inhibitor
[1] = tested on: CMK
[2] = tested on: ML-2
[3] = tested on: U937
[4] = tested on: CHRF288-11
[5] = tested on: M07e
[6] = tested on: CMS
[7] = tested on: MV4-11
[8] = tested on: MOLM-13

Compound	CMK %inh [1] [%]	ML-2 %inh [2] [%]	U937 %inh [3] [%]	CHRF288-11 %inh [4] [%]	M07e %inh [5] [%]	CMS %inh [6] [%]	MV4-11 %inh [7] [%]	MOLM-13 %inh [8] [%]	CMK %inh ([1]; CMK %inh, 10 µM) [%]	ML-2 %inh ([2]; ML-2 %inh, 10 µM) [%]	U937 %inh ([3]; U937 %inh, 10 µM) [%]	CHRF288-11 %inh ([4]; CHRF288-11 %inh, 10 µM) [%]	M07e %inh ([5]; M07e %inh, 10 µM) [%]	CMS %inh ([6]; CMS %inh, 10 µM) [%]	MV4-11 %inh ([7]; MV4-11 %inh, 10 µM) [%]	MOLM-13 %inh ([8]; MOLM-13 %inh, 10 µM) [%]
CO/N=C(\C(=O)N[C@@H]1C(=O)N2C(C(=O)O)=CCS[C@H]12)c1csc(N)n1 [SJ000565169-1, CEFTIZOXIME SODIUM]	-4.179	-0.7534	-0.2552	-3.529	1.196	-3.365	-0.08777	-3.581								
CC1(C)O[C@@H]2C[C@H]3[C@@H]4CCC5=CC(=O)C=C[C@]5(C)[C@H]4[C@@H](O)C[C@]3(C)[C@]2(C(=O)CO)O1 [SJ000565170-1, DESONIDE]	3.484	-0.7887	6.18	6.238	8.441	1.425	0.7481	5.492								
CC=CC1=C(C(=O)O)N2C(=O)[C@@H](NC(=O)[C@H](N)c3ccc(O)cc3)[C@H]2SC1 [SJ000565172-1, CEFPROZIL]									-2.483	-0.9482	0.9255	-2.763	-0.1553	-1.599	3.254	3.181
CC=CC1=C(C(=O)O)N2C(=O)[C@@H](NC(=O)[C@H](N)c3ccc(O)cc3)[C@H]2SC1 [SJ000565172-2, CEFPROZIL]									1.641	-1.058	-2.74	-7.818	-4.985	-3.774	1.013	0.07702
CC=CC1=C(C(=O)O)N2C(=O)[C@@H](NC(=O)[C@H](N)c3ccc(O)cc3)[C@H]2SC1 [SJ000565172-3, CEFPROZIL]									-7.257	-1.603	-1.915	-2.278	-2.148	0.3567	-2.606	-1.663
C#C[C@]1(O)CC[C@H]2[C@@H]3CCC4=CCCC[C@@H]4[C@H]3C(=C)C[C@@]21CC [SJ000565174-1, DESOGESTREL]	2.427	3.09	2.771	1.152	3.523	2.249	4.001	0.3348								
COc1ccc2cc1Oc1cc3c(cc1OC)CC[N+](C)(C)[C@H]3Cc1ccc(cc1)Oc1c(OC)c(OC)cc3c1[C@@H](C2)[N+](C)(C)CC3 [SJ000565179-1, METOCURINE IODIDE]	-2.411	-0.842	-0.03863	0.972	-0.367	-2.545	1.51	0.1471								
CCOC(=O)C(C)Oc1cccc2c(=O)n(CC(=O)Nc3ccc4c(c3)OCCO4)ccc12 (stereo not shown) [SJ000565608-2, SID 7969543]	1.565	3.909	-0.5022	4.074	-1.631	-1.631	2.255	1.293								
COc1ccc(-c2ccc3c(N4CCOC[C@@H]4C)nc(N4CCOC[C@@H]4C)nc3n2)cc1CO [SJ000571306-4, 1009298-09-2 | AZD8055 | | AZD8055]	103.1	20	53.04	63.41	41.99	58.27	44.46	34.83								
Cc1ccccc1-n1c(Cn2cnc3c(N)ncnc32)nc2cccc(C)c2c1=O [SJ000571308-2, IC-87114 | PIK 293]	-7.948	1.318	0.4255	10.49	-1.447	-0.8579	3.81	2.064								
Fc1cccc(COc2ccc(Nc3ncnc4sc(-c5ccco5)cc34)cc2Cl)c1 [SJ000573002-1, U22476/39/2]	-2.703	0.9644	0.5844	-4.95	-3.433	0.3499	-1.439	-2.902								
COc1cc2ncn(-c3cc(O[C@@H](C)c4ccccc4Cl)c(C(N)=O)s3)c2cc1OC [SJ000573003-1, U20723/53/1 | U20723/56/1]	79.08	43.99	74.14	52.73	89.94	40.55	67.89	83.64								
COc1cc2ncn(-c3cc(O[C@H](C)c4ccccc4Cl)c(C(N)=O)s3)c2cc1OC [SJ000573003-2, U20723/53/1 | U20723/56/1]	110.4	11.11	82.96	41.02	88.84	80.13	78.95	108.1								
CS(=O)(=O)CCNCc1ccc(-c2ccc3ncnc(Nc4ccc(OCc5ccccc5)c(Cl)c4)c3c2)o1 [SJ000573004-1, U12816/179/1]	1.726	2.349	-2.727	2.861	-1.936	-1.14	1.075	-1.767								
[O-][S+]1CCN(Cc2ccc(-c3ccc4ncnc(Nc5ccc(OCc6cccc(F)c6)c(Cl)c5)c4c3)o2)CC1 [SJ000573006-1, U16708/127/1]	4.042	0.7137	-0.3031	12.8	-1.786	4.852	-1.095	-0.7641								
CCS(=O)(=O)c1ccc(OC)c(Nc2ncc(-c3cccc(F)c3)o2)c1 [SJ000573008-1, U15747/41/2]	0.9043	0.9608	1.214	-0.1874	1.435	0.7614	41.43	34.16								
COc1cc(Nc2ncc(-c3ccccc3)o2)cc(OC)c1OC [SJ000573009-1, U21834/26/1]	106.1	46.26	48.56	41.65	25.07	12.03	70.39	93.46								
O=S(=O)(CCNCc1ccc(-c2ccc3ncnc(Nc4ccc(OCc5cccc(F)c5)c(Cl)c4)c3c2)o1)c1ccccc1 [SJ000573010-1, U15277/78/1]	1.889	0.08634	1.807	-1.699	-3.622	-1.695	-1.134	2.488								
CS(=O)(=O)CCNCc1ccc(-c2ccc3ncnc(Nc4ccc(OCc5ccccc5)c(Br)c4)c3c2)o1 [SJ000573011-1, U14801/114/2]	0.7024	-0.7119	-1.717	1.432	-3.258	2.264	1.235	0.135								
Fc1ccc(-c2ncn(C3CCNCC3)c2-c2ccnc(Oc3ccc(F)c(F)c3)n2)cc1 [SJ000573012-1, JB27026-232B1]	0.6183	1.308	-1.918	-0.6747	-2.095	1.648	1.825	-3.394								
